# In patent US6054435A, “6-O-substituted macrolides having antibacterial activity” (priority 1999, dated 2000):
# Legend:
# Experiment in all cases: in vitro antibacterial activity (MIC), agar dilution
# Assay type in all cases: cell-based
# [1] = test system: Streptococcus Pneumonia 5979; conditions: organism code ZZ; BHI agar, 35-37° C., 20 to 24 hours; unit assumed
# Summary of the method: (§1)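 Plates of BHI agar were prepared with twelve aqueous dilutions of compound, then inoculated at 1:100 dilution, or 1:10 for slow growers like Streptococcus. After incubation they were inspected, and the lowest concentration yielding no growth, slight haze or sparse colonies was recorded as MIC.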
# Escherichia coli JUHL = conditions: organism code QQ; BHI agar, 35-37° C., 20 to 24 hours; unit assumed
# Summary of the method: as §1
# [2] = test system: Streptococcus Pneumonia GYR 1171; conditions: organism code YY; BHI agar, 35-37° C., 20 to 24 hours; unit assumed
# Summary of the method: as §1
# [3] = test system: Streptococcus Pneumonia ATCC6303; conditions: organism code XX; BHI agar, 35-37° C., 20 to 24 hours; unit assumed
# Summary of the method: as §1
# [4] = test system: Staphylococcus epidermidis 3519; conditions: organism code HH; BHI agar, 35-37° C., 20 to 24 hours; unit assumed
# Summary of the method: as §1
# [5] = test system: Enterococcus faecium ATCC 8043; conditions: organism code II; BHI agar, 35-37° C., 20 to 24 hours; unit assumed
# Summary of the method: as §1
# Escherichia coli SS = conditions: organism code RR; BHI agar, 35-37° C., 20 to 24 hours; unit assumed
# Summary of the method: as §1
# [6] = test system: Micrococcus luteus ATCC 4698; conditions: organism code PP; BHI agar, 35-37° C., 20 to 24 hours; unit assumed
# Summary of the method: (§2)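 Endpoint: lowest concentration with no growth, slight haze or sparsely isolated colonies at the inoculum spot, judged against a compound-free BHI control. Strains were replicator-inoculated at 1:100 (1:10 for Streptococcus and other slow growers).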
# [7] = test system: Streptococcus pyogenes EES61; conditions: organism code LL; BHI agar, 35-37° C., 20 to 24 hours; unit assumed
# Summary of the method: as §1
# Escherichia coli DC-2 = conditions: organism code SS; BHI agar, 35-37° C., 20 to 24 hours; unit assumed
# Summary of the method: as §1
# Candida albicans CCH 442 = conditions: organism code TT; BHI agar, 35-37° C., 20 to 24 hours; unit assumed
# Summary of the method: as §1
# [8] = test system: Mycobacterium smegmatis ATCC 114; conditions: organism code UU; BHI agar, 35-37° C., 20 to 24 hours; unit assumed
# Summary of the method: as §1
# [9] = test system: Nocardia Asteroides ATCC9970; conditions: organism code VV; BHI agar, 35-37° C., 20 to 24 hours; unit assumed
# Summary of the method: as §1
# [10] = test system: Haemophilis Influenzae DILL AMP R; conditions: organism code WW; BHI agar, 35-37° C., 20 to 24 hours; unit assumed
# Summary of the method: as §1
# [11] = test system: Streptococcus pyogenes 930; conditions: organism code MM; BHI agar, 35-37° C., 20 to 24 hours; unit assumed
# Summary of the method: as §1
# [12] = test system: Streptococcus agalactiae CMX 508; conditions: organism code KK; BHI agar, 35-37° C., 20 to 24 hours; unit assumed
# Summary of the method: as §1
# [13] = test system: Staphylococcus aureus A-5278; conditions: organism code CC; BHI agar, 35-37° C., 20 to 24 hours; unit assumed
# Summary of the method: as §1
# [14] = test system: Streptococcus bovis A-5169; conditions: organism code JJ; BHI agar, 35-37° C., 20 to 24 hours; unit assumed
# Summary of the method: as §1
# [15] = test system: Streptococcus pyogenes PIU 2548; conditions: organism code NN; BHI agar, 35-37° C., 20 to 24 hours; unit assumed
# Summary of the method: as §1
# [16] = test system: Staphylococcus aureus CMX 642A; conditions: organism code DD; BHI agar, 35-37° C., 20 to 24 hours; unit assumed
# Summary of the method: as §1
# [17] = test system: Staphylococcus aureus ATCC 6538P; conditions: organism code AA; BHI agar, 35-37° C., 20 to 24 hours; unit assumed
# Summary of the method: as §1
# [18] = test system: Staphylococcus aureus A5177; conditions: organism code BB; BHI agar, 35-37° C., 20 to 24 hours; unit assumed
# Summary of the method: as §1
# [19] = test system: Streptococcus Pneumonia 5649; conditions: organism code ZZA; BHI agar, 35-37° C., 20 to 24 hours; unit assumed
# Summary of the method: as §1
# [20] = test system: Micrococcus luteus ATCC 9341; conditions: organism code OO; BHI agar, 35-37° C., 20 to 24 hours; unit assumed
# Summary of the method: as §2
# [21] = test system: Staphylococcus aureus 1775; conditions: organism code GG; BHI agar, 35-37° C., 20 to 24 hours; unit assumed
# Summary of the method: as §1
# [22] = test system: Staphylococcus aureus NCTC10649M; conditions: organism code EE; BHI agar, 35-37° C., 20 to 24 hours; unit assumed
# Summary of the method: as §1
# [23] = test system: Staphylococcus aureus CMX 553; conditions: organism code FF; BHI agar, 35-37° C., 20 to 24 hours; unit assumed
# Summary of the method: as §1
smiles,measurement,setting,value
CC[C@H]1OC(=O)[C@H](C)C(=O)[C@H](C)[C@@H](O[C@@H]2O[C@H](C)C[C@H](N(C)C)[C@H]2O)[C@](C)(OC/C=C/c2cnc(-c3cccnc3)s2)C[C@@H](C)C(=O)[C@H](C)[C@H]2NC(=O)O[C@@]21C [Example 55],MIC,[1],2 µg/mL
same,MIC,Escherichia coli JUHL,50 µg/mL
same,MIC,[2],0.03 µg/mL
same,MIC,[3],0.03 µg/mL
same,MIC,[4],0.1 µg/mL
same,MIC,[5],0.05 µg/mL
same,MIC,Escherichia coli SS,0.39 µg/mL
same,MIC,[6],0.2 µg/mL
same,MIC,[7],0.05 µg/mL
same,MIC,Escherichia coli DC-2,50 µg/mL
same,MIC,Candida albicans CCH 442,> 100 µg/mL
same,MIC,[8],0.39 µg/mL
same,MIC,[9],0.02 µg/mL
same,MIC,[10],4 µg/mL
same,MIC,[11],25 µg/mL
same,MIC,[12],0.05 µg/mL
same,MIC,[13],> 100 µg/mL
same,MIC,[14],≤ 0.005 µg/mL
same,MIC,[15],0.2 µg/mL
same,MIC,[16],0.05 µg/mL
same,MIC,[17],0.1 µg/mL
same,MIC,[18],0.05 µg/mL
same,MIC,[19],0.25 µg/mL
same,MIC,[20],0.02 µg/mL
same,MIC,[21],> 100 µg/mL
same,MIC,[22],0.1 µg/mL
same,MIC,[23],0.05 µg/mL
CC[C@H]1OC(=O)[C@H](C)C(=O)[C@H](C)[C@@H](O[C@@H]2O[C@H](C)C[C@H](N(C)C)[C@H]2O)[C@](C)(OC/C=C/c2cnc(-c3cccs3)s2)C[C@@H](C)C(=O)[C@H](C)[C@H]2NC(=O)O[C@@]21C [Example 57],MIC,[1],0.5 µg/mL
same,MIC,Escherichia coli JUHL,100 µg/mL
same,MIC,[2],≤ 0.004 µg/mL
same,MIC,[3],≤ 0.004 µg/mL
same,MIC,[4],0.05 µg/mL
same,MIC,[5],0.05 µg/mL
same,MIC,Escherichia coli SS,0.39 µg/mL
same,MIC,[6],0.05 µg/mL
same,MIC,[7],0.01 µg/mL
same,MIC,Escherichia coli DC-2,100 µg/mL
same,MIC,Candida albicans CCH 442,> 100 µg/mL
same,MIC,[8],0.2 µg/mL
same,MIC,[9],0.05 µg/mL
same,MIC,[10],4 µg/mL
same,MIC,[11],25 µg/mL
same,MIC,[12],0.01 µg/mL
same,MIC,[13],> 100 µg/mL
same,MIC,[14],0.02 µg/mL
same,MIC,[15],0.1 µg/mL
same,MIC,[16],0.05 µg/mL
same,MIC,[17],0.1 µg/mL
same,MIC,[18],0.05 µg/mL
same,MIC,[19],0.25 µg/mL
same,MIC,[20],0.02 µg/mL
same,MIC,[21],100 µg/mL
same,MIC,[22],0.2 µg/mL
same,MIC,[23],0.1 µg/mL
CC[C@H]1OC(=O)[C@H](C)C(=O)[C@H](C)[C@@H](O[C@@H]2O[C@H](C)C[C@H](N(C)C)[C@H]2O)[C@](C)(OC/C=C/c2cnc(-c3cnccn3)s2)C[C@@H](C)C(=O)[C@H](C)[C@H]2NC(=O)O[C@@]21C [Example 58],MIC,[1],4 µg/mL
same,MIC,Escherichia coli JUHL,50 µg/mL
same,MIC,[2],≤ 0.004 µg/mL
same,MIC,[3],≤ 0.004 µg/mL
same,MIC,[4],0.1 µg/mL
same,MIC,[5],0.02 µg/mL
same,MIC,Escherichia coli SS,0.2 µg/mL
same,MIC,[6],0.05 µg/mL
same,MIC,[7],0.02 µg/mL
same,MIC,Escherichia coli DC-2,100 µg/mL
same,MIC,Candida albicans CCH 442,> 100 µg/mL
same,MIC,[8],1.56 µg/mL
same,MIC,[9],0.02 µg/mL
same,MIC,[10],4 µg/mL
same,MIC,[11],3.1 µg/mL
same,MIC,[12],0.02 µg/mL
same,MIC,[13],> 100 µg/mL
same,MIC,[14],0.01 µg/mL
same,MIC,[15],0.1 µg/mL
same,MIC,[16],0.1 µg/mL
same,MIC,[17],0.1 µg/mL
same,MIC,[18],0.05 µg/mL
same,MIC,[19],0.25 µg/mL
same,MIC,[20],0.01 µg/mL
same,MIC,[21],> 100 µg/mL
same,MIC,[22],0.1 µg/mL
same,MIC,[23],0.05 µg/mL
CC[C@H]1OC(=O)[C@H](C)C(=O)[C@H](C)[C@@H](O[C@@H]2O[C@H](C)C[C@H](N(C)C)[C@H]2O)[C@](C)(OC/C=C/c2cnc(-c3cncnc3)s2)C[C@@H](C)C(=O)[C@H](C)[C@H]2NC(=O)O[C@@]21C [Example 59],MIC,[1],4 µg/mL
same,MIC,Escherichia coli JUHL,50 µg/mL
same,MIC,[2],≤ 0.004 µg/mL
same,MIC,[3],≤ 0.004 µg/mL
same,MIC,[4],0.1 µg/mL
same,MIC,[5],0.02 µg/mL
same,MIC,Escherichia coli SS,0.2 µg/mL
same,MIC,[6],0.1 µg/mL
same,MIC,[7],0.01 µg/mL
same,MIC,Escherichia coli DC-2,50 µg/mL
same,MIC,Candida albicans CCH 442,> 100 µg/mL
same,MIC,[8],3.1 µg/mL
same,MIC,[9],0.02 µg/mL
same,MIC,[10],4 µg/mL
same,MIC,[11],6.2 µg/mL
same,MIC,[12],0.01 µg/mL
same,MIC,[13],> 100 µg/mL
same,MIC,[14],≤ 0.005 µg/mL
same,MIC,[15],0.2 µg/mL
same,MIC,[16],0.1 µg/mL
same,MIC,[17],0.1 µg/mL
same,MIC,[18],0.1 µg/mL
same,MIC,[19],0.5 µg/mL
same,MIC,[20],0.01 µg/mL
same,MIC,[21],> 100 µg/mL
same,MIC,[22],0.1 µg/mL
same,MIC,[23],0.1 µg/mL
